# Laboratory results reported in US20260297085A1, “1 H-PYRROLO[2,3-B]PYRIDIN-4-YL]-2-OXOPYRROLIDINE-3-CARBONITRILE DERIVATIVES AS TYROSINE KINASE 2 (TYK2) INHIBITORS FOR THE TREATMENT OF INFLAMMATORY DISEASES” (BIOGEN MA INC., priority 2023, published 2026).
# Counter-ions that a name gives are not always drawn.
# What was measured:
# [1] = target: T1, human JAK2 kinase domain (JH1) (Homo sapiens, UniProt O60674); test: JH1 biochemical assay for JAK2 (ADP-Glo kinase assay, recombinant JH1 catalytic domain, JAK3-974 peptide, 15 μM ATP)
# T1 construct: recombinantly generated catalytic kinase (also known as JH1) domain of human JAK1, JAK2, JAK3 and TYK2
# T1 sequence (O60674 849-1124 limits assumed): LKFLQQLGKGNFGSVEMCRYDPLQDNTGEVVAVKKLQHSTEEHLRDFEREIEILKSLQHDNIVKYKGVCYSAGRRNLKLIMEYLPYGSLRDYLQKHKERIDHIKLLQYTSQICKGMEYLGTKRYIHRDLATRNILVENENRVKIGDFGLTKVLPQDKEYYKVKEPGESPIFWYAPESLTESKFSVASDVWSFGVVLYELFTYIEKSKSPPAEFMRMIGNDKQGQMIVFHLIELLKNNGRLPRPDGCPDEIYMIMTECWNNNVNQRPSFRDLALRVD
# In short: (§1)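 Reactions contain 50 μM peptide and run 100 minutes, with enzyme at 4, 0.2, 0.3 and 2 nM for JAK1, JAK2, JAK3 and TYK2. Generated ADP is read by luminescence; IC50 derives from normalized dose-response curves.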
# [2] = target: T2, human JAK3 kinase domain (JH1) (Homo sapiens, UniProt P52333); test: JH1 biochemical assay for JAK3 (ADP-Glo kinase assay, recombinant JH1 catalytic domain, JAK3-974 peptide, 4 μM ATP)
# T2 construct: recombinantly generated catalytic kinase (also known as JH1) domain of human JAK1, JAK2, JAK3 and TYK2
# T2 sequence (P52333 822-1111 limits assumed): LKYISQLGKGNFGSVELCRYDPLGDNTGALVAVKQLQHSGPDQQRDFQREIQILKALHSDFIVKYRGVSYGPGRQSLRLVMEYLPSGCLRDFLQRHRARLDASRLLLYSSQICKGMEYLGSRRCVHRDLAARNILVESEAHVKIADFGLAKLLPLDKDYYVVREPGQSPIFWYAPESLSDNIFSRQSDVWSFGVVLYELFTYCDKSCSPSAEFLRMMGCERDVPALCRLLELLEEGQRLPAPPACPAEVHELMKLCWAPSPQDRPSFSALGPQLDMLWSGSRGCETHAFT
# In short: as §1
# [3] = target: T3, human JAK1 kinase domain (JH1) (Homo sapiens, UniProt P23458); test: JH1 biochemical assay for JAK1 (ADP-Glo kinase assay, recombinant JH1 catalytic domain, JAK3-342 peptide, 35 μM ATP)
# T3 construct: recombinantly generated catalytic kinase (also known as JH1) domain of human JAK1, JAK2, JAK3 and TYK2
# T3 sequence (P23458 875-1153 limits assumed): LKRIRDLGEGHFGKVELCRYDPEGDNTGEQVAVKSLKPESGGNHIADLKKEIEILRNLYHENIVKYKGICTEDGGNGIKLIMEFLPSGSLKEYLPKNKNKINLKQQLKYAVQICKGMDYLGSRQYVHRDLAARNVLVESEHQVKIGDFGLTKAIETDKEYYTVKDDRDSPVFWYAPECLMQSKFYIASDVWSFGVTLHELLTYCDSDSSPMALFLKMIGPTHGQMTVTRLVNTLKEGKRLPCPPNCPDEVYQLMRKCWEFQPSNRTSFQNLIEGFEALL
# In short: as §1
# [4] = target: T4, human TYK2 kinase domain (JH1) (Homo sapiens, UniProt P29597); test: JH1 biochemical assay for TYK2 (ADP-Glo kinase assay, recombinant JH1 catalytic domain, JAK3-974 peptide, 10 μM ATP)
# T4 construct: recombinantly generated catalytic kinase (also known as JH1) domain of human JAK1, JAK2, JAK3 and TYK2
# T4 sequence (P29597 897-1176 limits assumed): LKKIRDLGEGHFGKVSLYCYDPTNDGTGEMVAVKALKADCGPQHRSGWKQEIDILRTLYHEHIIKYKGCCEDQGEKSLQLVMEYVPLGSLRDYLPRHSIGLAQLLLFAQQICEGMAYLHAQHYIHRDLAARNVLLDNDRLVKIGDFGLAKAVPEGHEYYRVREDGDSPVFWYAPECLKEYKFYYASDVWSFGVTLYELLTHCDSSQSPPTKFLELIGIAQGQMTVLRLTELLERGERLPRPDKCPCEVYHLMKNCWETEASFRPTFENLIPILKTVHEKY
# In short: as §1
Compound,"IC50 ([1]; JAK2 JH1, ADP-Glo) [nM]","IC50 ([2]; JAK3 JH1, ADP-Glo) [nM]","IC50 ([3]; JAK1 JH1, ADP-Glo) [nM]","IC50 ([4]; TYK2 JH1, ADP-Glo) [nM]","IC50 ([1]; JH1 kinase domain, ADP-Glo) [nM]","IC50 ([2]; JH1 kinase domain, ADP-Glo) [nM]","IC50 ([3]; JH1 kinase domain, ADP-Glo) [nM]","IC50 ([4]; JH1 kinase domain, ADP-Glo) [nM]"
"COc1ncc(-c2cn3nccc3c(N3C[C@@H](C)[C@@](C#N)(C4CC4)C3=O)n2)cn1 [Example 240, (3R,4S)-3-cyclopropyl-1-(6-(2-methoxypyrimidin-5-yl)pyrazolo[1,5-a]pyrazin-4-yl)-4-methyl-2-oxopyrrolidine-3-carbonitrile trifluoroacetate]",> 10000,> 10000,> 10000,> 100,–,–,–,–
"COc1cc(-c2cn3nccc3c(N3C[C@@H](C)[C@@](C#N)(C4CC4)C3=O)n2)c(F)cn1 [Example 196, (3R,4S)-3-cyclopropyl-1-(6-(5-fluoro-2-methoxypyridin-4-yl)pyrazolo[1,5-a]pyrazin-4-yl)-4-methyl-2-oxopyrrolidine-3-carbonitrile]",–,–,–,–,1000 to 5000,100 to 1000,100 to 1000,20 to 50
"C[C@@H]1CN(c2ccnn3cc(-c4ncccc4F)cc23)C(=O)[C@]1(C#N)C1CC1 [Example 138, (3R,4S)-3-cyclopropyl-1-(6-(3-fluoropyridin-2-yl)pyrrolo[1,2-b]pyridazin-4-yl)-4-methyl-2-oxopyrrolidine-3-carbonitrile trifluoroacetate]",–,–,–,–,> 10000,1000 to 5000,100 to 1000,20 to 50
"Cc1cnn(-c2cc3c(N4C[C@@H](C)[C@@](C#N)(C5CC5)C4=O)ccnn3c2)n1 [Example 343, (3R,4S)-3-cyclopropyl-4-methyl-1-(6-(4-methyl-2H-1,2,3-triazol-2-yl)pyrrolo[1,2-b]pyridazin-4-yl)-2-oxopyrrolidine-3-carbonitrile]",> 10000,> 10000,> 10000,> 100,–,–,–,–
"C[C@@H]1CN(c2nc(-c3ccnn3C)cn3nccc23)C(=O)[C@]1(C#N)C1CC1 [Example 254, (3R,4S)-3-cyclopropyl-4-methyl-1-(6-(1-methyl-1H-pyrazol-5-yl)pyrazolo[1,5-a]pyrazin-4-yl)-2-oxopyrrolidine-3-carbonitrile trifluoroacetate]",100 to 1000,100 to 1000,100 to 1000,20 to 50,–,–,–,–
"CC[C@H]1CN(c2ccnn3cc(-c4cnn(C)c4)cc23)C(=O)[C@@]1(C#N)C1CC1 [Example 25, (3S,4R)-3-cyclopropyl-4-ethyl-1-(6-(1-methyl-1H-pyrazol-4-yl)pyrrolo[1,2-b]pyridazin-4-yl)-2-oxopyrrolidine-3-carbonitrile]",–,–,–,–,> 10000,> 10000,> 10000,> 100
"Cn1cc(-c2cc3c(N4C[C@H](C(F)F)[C@@](C#N)(C5CC5)C4=O)ccnn3c2)cn1 (racemic) [Example 152, rac-(3R,4R)-3-cyclopropyl-4-(difluoromethyl)-1-(6-(1-methyl-1H-pyrazol-4-yl)pyrrolo[1,2-b]pyridazin-4-yl)-2-oxopyrrolidine-3-carbonitrile]",–,–,–,–,1000 to 5000,1000 to 5000,1000 to 5000,> 100
"C[C@@H]1CN(c2nc(-c3ccc(F)nc3)cn3nccc23)C(=O)[C@]1(C#N)C1CC1 [Example 243, (3R,4S)-3-cyclopropyl-1-(6-(6-fluoropyridin-3-yl)pyrazolo[1,5-a]pyrazin-4-yl)-4-methyl-2-oxopyrrolidine-3-carbonitrile trifluoroacetate]",> 10000,1000 to 5000,1000 to 5000,> 100,–,–,–,–
"Cn1cc(-c2cc3c(N4CC[C@H](C5CC5)C4=O)ccnn3c2)cn1 (single isomer, unassigned) [Example 36]",–,–,–,–,5000 to 10000,> 10000,> 10000,> 100
"C[C@@H]1CN(c2ccnn3cc(-c4cnn(C)c4)cc23)C(=O)[C@@]1(C#N)C1CC1 [Example 21, (3S,4S)-3-cyclopropyl-4-methyl-1-(6-(1-methyl-1H-pyrazol-4-yl)pyrrolo[1,2-b]pyridazin-4-yl)-2-oxopyrrolidine-3-carbonitrile]",–,–,–,–,> 10000,> 10000,> 10000,> 100
